{
  "source": "patent US9113629B2",
  "about": "“4-amino-6-(4-substituted-phenyl)-picolinates and 6-amino-2-(4-substituted-phenyl)-pyrimidine-4-carboxylates and their use as herbicides” (DOW AGROSCIENCES LLC, priority 2013, dated 2015)",
  "test_system": "HORSS",
  "experiment": "Pre-emergent Test III, preemergent activity in wheat and barley",
  "assay_type": "in vivo, Hordeum vulgare",
  "experimental": "Pre-emergent Test III. Seeds of test species were planted into square plastic pots (10 cm wide) containing sandy loam soil. After planting, all pots were sub-irrigated 16 h prior to compound application. A weighed amount, determined by the highest rate to be tested, of each test compound was placed in a 25 mL glass vial and was dissolved in 4 mL of a 97:3 v/v mixture of acetone and DMSO to obtain concentrated stock solutions. […] The concentrated stock solutions obtained were diluted with 20 mL of an aqueous mixture containing water and 0.02% w/v (weight/volume) of Triton X-155 to obtain spray solutions containing the highest application rates. Additional application rates were obtained by serial dilution of 12 mL of the high rate solution into a solution containing 2 mL of 97:3 v/v mixture of acetone and DMSO and 10 mL of an aqueous mixture containing water and 0.02% w/v (weight/volume) of Triton X-155 to obtain 1⁄2×, 1⁄4×, 1⁄8× and 1/16× rates of the high rate. Compound requirements are based upon a 12 mL application volume at a rate of 187 liters per hectare (L/ha). Formulated compounds were applied to the soil surface with an overhead Mandel track sprayer equipped with […] nozzles calibrated to deliver 187 L/ha over an application area of 0.503 square meters. Control pots were sprayed in the same manner with the solvent blank. The treated pots and control pots were placed in a greenhouse as described above and watered through surface irrigation. After 21 d, the condition of the test pots as compared with that of the untreated pots was determined visually and scored on a scale of 0 to 100 percent where 0 corresponds to no herbicidal effect and 100 corresponds to plant death or lack of emergence from the soil. By applying the well-accepted probit analysis as described by J. Berkson in Journal of the American Statistical Society, 48, 565 (1953) and by D. Finney in “Probit Analysis” Cambridge University Press (1952), the above data can be used to calculate GR20, GR50, GR80 and GR90 values, which are defined as growth reduction factors that correspond to the effective dose of herbicide required to kill or control 20 percent, 50 percent, 80 percent or 90 percent, respectively, of a target plant.",
  "data": [
    {"smiles": "COC(=O)c1nc(-c2ccc(Br)c(F)c2)c(F)c(N)c1Cl", "note": "[Compound 49]", "values": [
      {"measurement": "Visual Growth Reduction (%) 21 Days After Application, HORSS", "setting": "35 g ai/ha", "value": "G (0-29)"},
      {"measurement": "Visual Growth Reduction (%) 21 Days After Application, HORSS", "setting": "70 g ai/ha", "value": "G (0-29)"},
      {"measurement": "GR20 HORSS", "setting": "21 days after application, dose to kill or control 20%, probit analysis", "value": ">70", "unit": "g ai/ha"}
    ]}
  ]
}
